Key:
[1] = tested on: NSCs; assay: Alamar blue viability EC50 in neural stem cells; type: cell-based, human
Experimental: Human Neural Stem Cells (H9 hESC-Derived) were purchased from Invitrogen and grown in DMEM/F12 containing penicillin/streptomycin/amphotericin B (1% vol/vol) supplemented with N2 (2% vol/vol; Invitrogen), EGF (20 ng/ml; Invitrogen), and FGF-2 (20 ng/ml; Invitrogen). DIPG cell lines (all with the H3K27M mutation) SU-DIPG-IV (DIPG-IV), SU-DIPG-13p (DIPG-13p), and HSJD-DIPG-007 (DIPG-007) were grown and passaged in DIPG medium as previously reported (Grasso et al., Nature medicine 2015; 21:555-9; Nagaraja et al., Cancer cell 2017; 31:635-52 e6; Vinci et al., Nature medicine 2018). SF8628 and immortalized NHAs were grown in DMEM (Invitrogen) supplemented with 10% FBS (Invitrogen). All cell lines were confirmed by STR profiling and tested mycoplasma negative by PCR. All tumor-derived cell lines used are described in Table 2.
Direct cell counts were performed using the Countess II FL Automated Cell Counter (ThermoFisher Scientific). Alamar blue viability (ThermoFisher Scientific) and the 5-bromo-2′-deoxyuridine (BrdU) incorporated cell proliferation assay (Cell Signaling Technology Cat #6813) were performed using the manufacturer's standard protocol. EC50 curve analysis was performed using raw fluorescent Alamar blue values that were inputted into PRISM 7.0. Drug concentrations were log 10 transformed and values normalized to percent viability with respect to vehicle treated cells. […]

[2] = target: ERK5 (Homo sapiens, UniProt Q13164); assay: Western blot of tumor lysates from treated mice (pERK5, cleaved PARP); type: in vivo; set-up: from tissue; host or cells: Tumour lysates from orthotopic DIPG xenografts (SF8628 or DIPG-13p) in NOD-SCID mice; conditions: mice sacrificed after 5 days of treatment
Experimental: Cell pellets were lysed in PLC lysis buffer containing protease and phosphatase inhibitors (Roche Inc.). Protein lysates were quantified using the bicinchoninic acid (BCA) assay (Pierce Chemical Co., Rockford, Ill.). 30 μg of total protein lysate was loaded in 10% SDS-PAGE gels and electrophoresed. Proteins were transferred to PVDF membranes using a semi-dry transfer apparatus (Bio-Rad). Membranes were blocked for one hour and probed for various proteins overnight in 5% non-fat milk or 5% BSA in Tris Buffered Saline Solution, 0.5% Tween-20 (TBST) or Phosphate Buffered Saline Solution with 0.5% Tween-20 (PBST). Membranes were washed for 5 mins in TBST (3×) and incubated with horseradish peroxidase-conjugated antibodies specific for the primary antibody (BioRad Laboratories, Inc., CA, USA). Binding was detected using Chemiluminescence Reagent Plus (PerkinElmer Inc., MA, USA). Antibodies were used at the following dilutions:
All animal procedures were carried out ethically according to animal user protocols approved by Institutional Animal Care Committee (IACUC). 4-6 week-old non-obese diabetic severe combined immune deficiency male or female mice (NOD-SCID-Prkdc^scid) were injected with 1×10^5 SU-DIPG-13p cells or 1×10^5 SF8628 DIPG cells. […]

Sequence of ERK5 (Q13164 whole entry): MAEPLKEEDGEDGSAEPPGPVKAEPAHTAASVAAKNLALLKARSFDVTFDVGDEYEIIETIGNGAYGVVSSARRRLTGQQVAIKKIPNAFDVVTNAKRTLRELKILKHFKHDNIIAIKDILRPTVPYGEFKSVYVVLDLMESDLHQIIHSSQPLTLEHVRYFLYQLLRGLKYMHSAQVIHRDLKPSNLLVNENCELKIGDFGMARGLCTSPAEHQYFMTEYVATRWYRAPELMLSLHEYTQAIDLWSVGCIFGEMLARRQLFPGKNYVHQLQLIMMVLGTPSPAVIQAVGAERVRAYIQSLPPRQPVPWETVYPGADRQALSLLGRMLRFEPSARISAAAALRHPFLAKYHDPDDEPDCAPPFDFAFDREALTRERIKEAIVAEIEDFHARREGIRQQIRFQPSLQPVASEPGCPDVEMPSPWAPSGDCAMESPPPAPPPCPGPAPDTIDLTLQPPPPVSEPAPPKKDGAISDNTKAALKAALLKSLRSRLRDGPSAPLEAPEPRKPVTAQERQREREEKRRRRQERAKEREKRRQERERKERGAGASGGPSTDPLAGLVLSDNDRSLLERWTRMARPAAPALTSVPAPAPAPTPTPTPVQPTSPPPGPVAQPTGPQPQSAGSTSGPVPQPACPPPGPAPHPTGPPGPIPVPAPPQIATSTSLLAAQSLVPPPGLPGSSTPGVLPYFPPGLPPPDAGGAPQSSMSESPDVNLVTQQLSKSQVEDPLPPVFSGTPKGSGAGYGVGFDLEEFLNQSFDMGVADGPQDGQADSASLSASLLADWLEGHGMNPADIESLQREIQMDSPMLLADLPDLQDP

CCOc1cc(C(=O)N2CCC(N3CCN(C)CC3)CC2)ccc1Nc1ncc2c(n1)N(C1CCCC1)c1ccccc1C(=O)N2C [ERK5-IN-1, 11-cyclopentyl-2-[[2-ethoxy-4-[[4-(4-methyl-1-piperazinyl)-1-piperidinyl]carbonyl]phenyl]amino]-5,11-dihydro-5-methyl-6H-pyrimido[4,5b][1,4]benzodiazepin-6-one]
ERK5-IN-1 EC50 values ([1]; NSCs and NSCs over expressing wildtype H3, compared to H3K27M DIPG and hemispheric pGBM lines): higher
ERK5-IN-1 EC50 values ([1]; NSCs expressing H3K27M): significantly lower
apoptosis by cleaved PARP in vivo [2]: induction of apoptosis
in vivo ERK5 auto-phosphorylation [2]: inhibition of ERK5 auto-phosphorylation
